# Columns and labels:
# several viruses = conditions: cited from earlier work
# PRV [1] = assay: microbe, parasite or virus in culture; format: cell-based, Pseudorabies virus; conditions: for EC50: Suid alphaherpesvirus 1, Vero, 48 h, read-out: Antiviral Activity EC50
# Vero cells = conditions: for Cytotoxicity IC50 (CC50): African green monkey
# [2] = tested on: various RNA and DNA viruses; conditions: cited from earlier work
# PRV [3] = format: cell-based, Pseudorabies virus
# PRV [4] = format: cell-based, Pseudorabies virus; remark: listed apart in the source
# in vitro = conditions: African green monkey
Structure (SMILES),EC50 (PRV [1]) [µg/mL],Cytotoxicity IC50 (CC50) (Vero cells) [µg/mL],other results
COC[C@@]1(CCC(C)=C(C)C)Nc2ccc(C(N)=O)cc2C[C@H]1O [benzastatin D],,,antiviral activity against several viruses (several viruses): inactive
"NC(=O)c1ncn([C@@H]2O[C@H](CO)[C@@H](O)[C@H]2O)n1 [Ribavirin, reference compound]",4.44 ± 1.53,>20,
"COCC1(CCC(C)=C(C)C)Nc2ccc(C(=O)O)cc2CC1Cl (stereo not drawn) [Compound 4, virantmycin]",< 0.31,>20,"antiviral activity against various RNA and DNA viruses [2]: significant antiviral activity; virus infection in PRV-infected cells (indirect immunofluorescence) (PRV [3]): significantly reduced; cells alive (protection of Vero cells against PRV) (PRV [1]): more than 50%; toxic effect on the tested cells (Vero cells): does not show any toxic effect; PRV proliferation (qPCR, PRV gE) (PRV [4]): inhibits PRV proliferation in a dose–dependent manner"
COC[C@@]1(CCC(C)=C(C)C)Nc2ccc(C(N)=O)cc2C[C@H]1Cl [Benzastatin C],,,antiviral activity against several viruses (several viruses): specific activities against several viruses
"COCC(O)(CCC1(C)OC1(C)C)C1Cc2cc(C(=O)O)ccc2N1 (stereo not drawn) [Compound 2, Virantmycin E]",> 20,>20,
"Nc1nc2c(ncn2COCCO)c(=O)[nH]1 [Acyclovir, reference compound]",2.96 ± 1.48,>20,
"COC[C@@]1(CCC(C)=C(C)C)Nc2ccc(C(=O)O)cc2C[C@H]1OC(C)=O [Compound 6, A-503451 D acetylate]",> 20,>20,
"COCC(O)(CCC(C)=C(C)C)C1Cc2cc(C(=O)O)ccc2N1 (stereo not drawn) [Compound 8, A-503451 B]",> 20,>20,
"COCC12CCC(C)(O)C(C)(C)C1Cc1cc(C(=O)O)ccc1N2 (stereo not drawn) [Compound 1, Virantmycin D]",> 20,>20,
"COC[C@@]1(CCC(C)=C(C)C)Nc2ccc(C(=O)O)cc2C[C@H]1O [Compound 5, A-503451 D]",> 20,>20,
"COC[C@@]1(CCC(CO)=C(C)C)Nc2ccc(C(=O)O)cc2C[C@H]1Cl [Compound 3, Virantmycin F]",1.74 ± 0.25,>20,viability (in vitro): 80%
"COC[C@@](Cl)(CCC(C)=C(C)C)[C@@H]1Cc2cc(C(=O)O)ccc2N1 [Compound 7, A-503451 A]",6.46 ± 1.38,,
